Key:
[1] = tested on: human IgG in mouse serum; assay: Immunoglobulin G (IgG) mRNA in vivo evaluation using lipid nanoparticle compositions (human IgG ELISA); design: species or system mice; settings: tail vein injection, μg IgG/mL serum 24 hours after administration; for Serum IgG @ 0.3 mg/kg: 0.3 mg mRNA/kg; for Serum IgG @ 1.0 mg/kg: 1.0 mg mRNA/kg
Experimental: A lipid of structure (I), DSPC, cholesterol and PEG-lipid are solubilized in ethanol at a molar ratio of 50:10:38.5:1.5 or 47.5:10:40.7:1.8. Lipid nanoparticles (LNP) are prepared at a total lipid to mRNA weight ratio of approximately 10:1 to 40:1. Briefly, the mRNA is diluted to 0.2 mg/mL in 10 to 50 mM citrate buffer, pH 4 or 10 to 25 mM acetate buffer, pH 4. Syringe pumps are used to mix the ethanolic lipid solution with the mRNA aqueous solution at a ratio of about 1:5 to 1:3 (vol/vol) with total flow rates above 15 mL/min. The ethanol is then removed, and the external buffer replaced with PBS by dialysis. Finally, the lipid nanoparticles are filtered through a 0.2 µm pore sterile filter.
Studies are performed in 6-8-week-old CD-1/ICR mice (Envigo) according to guidelines established by an institutional animal care committee (ACC) and the Canadian Council on Animal Care (CCAC). Varying doses of mRNA-lipid nanoparticle are systemically administered by tail vein injection and animals euthanized at a specific time point (e.g., 24 hours) post-administration. The whole blood is collected, and the serum subsequentially separated by centrifuging the tubes of the whole blood at 2000×g for 10 minutes at 4° C. and stored at −80° C. until use for analysis.
For immunoglobulin G (IgG) ELISA (Life Diagnostics Human IgG ELISA kit), the serum samples are diluted at 100 to 15000 folds with 1× diluent solution. 100 μL of diluted serum is dispensed into anti-human IgG coated 96-well plate in duplicate alongside human IgG standards and incubated in a plate shaker at 150 rpm at 25° C. for 45 minutes. The wells are washed 5 times with 1× wash solution using a plate washer (400 μL/well). 100 μL of HRP conjugate is added into each well and incubated in a plate shaker at the same condition above. The wells are washed 5 times again with 1× wash solution using a plate washer (400 μL/well). 100 μL of TMB reagent is added into each well and incubated in a plate shaker at the same condition above. The reaction is stopped by adding 100 μL of Stop solution to each well. The absorbance is read at 450 nm (A450) with a microplate reader. The amount of human IgG in mouse serum is determined by plotting A450 values for the assay standard against human IgG concentration.
Representative compounds of the disclosure shown in Table 2 were formulated using the following molar ratio: 50% cationic lipid/10% distearoylphosphatidylcholine (DSPC)/38.5% Cholesterol/1.5% PEG lipid 2-[2-(ω-methoxy(polyethyleneglycol2000)ethoxy]-N,N-ditetradecylacetamide) or 47.5% cationic lipid/10% DSPC/40.7% Cholesterol/1.8% PEG lipid. Activity was determined by measuring luciferase expression in the liver 4 hours following administration via tail vein injection as described in Example 1 or by measuring the amount of human IgG in mouse serum as described in Example 2. The activity was compared at a dose of 1.0 or 0.5 or 0.3 mg mRNA/kg and expressed as ng luciferase/g liver measured 4 hours after administration, as described in Example 1 or as μg IgG/mL serum measured 24 hours after administration, as described in Example 2. Compound numbers in Table 2 refer to the compound numbers of Table 1.

[2] = Determination of pKa of formulated lipids (TNS fluorescence assay in lipid nanoparticles); type: physicochemical; settings: lipid nanoparticles (compound/DSPC/cholesterol/PEG-lipid), lipid formulated in LNP (cationic lipid/DSPC/cholesterol/PEG-lipid), pH of half-maximal fluorescence
Experimental: As described elsewhere, the pKa of formulated lipids is correlated with the effectiveness of LNPs for delivery of nucleic acids (see Jayaraman et al, Angewandte Chemie, International Edition (2012), 51(34), 8529-8533; Semple et al, Nature Biotechnology 28, 172-176 (2010)). In some embodiments, the preferred range of pKa is ˜5 to ˜7. The pKa of each lipid is determined in lipid nanoparticles using an assay based on fluorescence of 2-(p-toluidino)-6-napthalene sulfonic acid (TNS). Lipid nanoparticles comprising compound of structure (I)/DSPC/cholesterol/PEG-lipid (50/10/38.5/1.5 or 47.5:10:40.7:1.8 mol %) in PBS at a concentration of 0.4 mM total lipid are prepared using the in-line process as described in Example 1. TNS is prepared as a 100 μM stock solution in distilled water. Vesicles are diluted to 24 μM lipid in 2 mL of buffered solutions containing 10 mM HEPES, 10 mM MES, 10 mM ammonium acetate, and 130 mM NaCl, where the pH ranged from 2.5 to 11. An aliquot of the TNS solution is added to give a final concentration of 1 μM and following vortex mixing fluorescence intensity is measured at room temperature in a SLM Aminco Series 2 Luminescence Spectrophotometer using excitation and emission wavelengths of 321 nm and 445 nm. A sigmoidal best fit analysis is applied to the fluorescence data and the pKa is measured as the pH giving rise to half-maximal fluorescence intensity.

SMILES | Serum IgG @ 0.3 mg/kg [1] [µg/mL] | Serum IgG @ 1.0 mg/kg [1] [µg/mL] | pKa [2]
CCCCCCCCC(CCCCCC)COC(=O)CCCCCN(CCCCCC(=O)OCC(CCCCCC)CCCCCCCC)CCCN(C)CCCCC(=O)N(CCCCCC)CCCCCC (stereo not drawn) [Compound I-49, Bis(2-hexyldecyl) 6,6′-((3-((5-(dihexylamino)-5-oxopentyl)(methyl)amino)propyl)azanediyl)dihexanoate] | 42.4 ± 11.7 | 120.6 ± 31.7 | 6.34
CCCCCCCCC(CCCCCC)COC(=O)CCCCCN(CCCCCC(=O)OCC(CCCCCC)CCCCCCCC)CCCN(C)CCCCC(=O)OC (stereo not drawn) [Compound I-50, Bis(2-hexyldecyl) 6,6′-((3-((5-methoxy-5-oxopentyl)(methyl)amino)propyl)azanediyl)dihexanoate] | 15.4 ± 2.6 | 91.5 ± 19.7 | 6.46
CCCCCCCCC(CCCCCC)C(=O)OCCCCCCN(CCCCCCOC(=O)C(CCCCCC)CCCCCCCC)CCCCN(C)CCCCC(=O)N(CCCCCCCC)CCCCCCCC (stereo not drawn) [Compound I-51, ((4-((5-(dioctylamino)-5-oxopentyl)(methyl)amino)butyl)azanediyl)bis(hexane-6,1-diyl)bis(2-hexyldecanoate)] | 31.9 ± 6.5 | 131.5 ± 18.1 | 6.4
CCCCCCCCC(CCCCCC)C(=O)OCCCCCCN(CCCCCCOC(=O)C(CCCCCC)CCCCCCCC)CCN(C)CCCC(=O)N(CC)CC (stereo not drawn) [Compound I-52, 6-((2-((3-(N,N-diethylcarbamoyl)propyl)-n-methylamino)ethyl)(6-(1-hexylnonylcarbonyloxy)hexyl)amino)hexyl 2-hexyldecanoate] | 6.4 ± 2.6 | 35.4 ± 11.1 | 6.71

Source: patent US20240270679A1, “LIPIDS FOR USE IN LIPID NANOPARTICLE FORMULATIONS” (Acuitas Therapeutics, Inc., priority 2022, published 2024)
